Data: US20220177418A1, “INHIBITORS OF THE N-TERMINAL DOMAIN OF THE ANDROGEN RECEPTOR” (The Regents of the University of California, priority 2019, published 2022)

Key:
Assay type in all cases: cell-based
androgen receptor (AR) = target: T1, androgen receptor (AR) (Homo sapiens, UniProt P10275); assay: MMTV-luciferase reporter assay (AR-dependent); settings: inhibition grade
T1 construct: either endogenously or exogenously express the full-length AR and ARV7
Description: (§1) The biochemical assays include reporter assays to determine the activity and specificity of these JN compounds to inhibit the transcriptional activity of the androgen receptor (AR). […] The reporter assays were performed in replicates and across a wide range of concentrations (generally […]).
(§2) The reporter systems utilized include: • MMTV-luciferase: AR-dependent • ARE-luciferase: AR-dependent • GRE-luciferase: glucocorticoid receptor (GR)-dependent • CRE-luciferase: CREB-dependent • AP1-luciferase: AP1 (jun and fos family)-dependent: • AR-TAD-luciferase: dependent on AR transactivation domain • CREB-TAD-luciferase: dependent on CREB transactivation domain • JUN-TAD-luciferase: dependent on c-Jun transactivation domain

[1] = system: AR-expressing (AR-positive) prostate cancer cell lines; assay: MTT cell viability assay, AR-positive cells; settings: growth inhibition grade, 6 days
Description: (§3) FIGS. 3A-Q. Growth inhibitory effects of selected compounds. The indicated cells were exposed to the indicated compounds for 6 days; cell viability was measured by MTT assay, and specific reporters were assayed using literature conditions. Results were normalized to that of vehicle control. Experiments were performed in quadruplicate; results are means±s.d.
(§4) JN053 and JN138-JN156 were synthesized and tested in biochemical and cell biologic assays that have been described elsewhere. The JN compounds were first studied in cell viability assays (MTT assay) to determine the efficacy and specificity of the JN compounds for inhibition of prostate cancer cell lines.
(§5) The growth inhibitory effect of the JN compounds was assessed through the MTT assay, which assesses the total number of viable cells in vitro. These experiments were performed in AR-expressing (AR-positive) prostate cancer cell lines to assess on target effects and AR-null (AR-negative) prostate cancer cell lines to assess off target effects (i.e. specificity).
AR-expressing (AR-pos): • LNCaP: full length AR • LNCaP AR: overexpression of full length AR • 22Rv1: full length AR and ARV7 • VCaP: full length AR and ARV7 • CWR22: full length AR and ARV7

[2] = system: AR-null (AR-negative) prostate cancer cell lines; assay: MTT cell viability assay, AR-negative cells; settings: growth inhibition grade, 6 days
Description: as §3, §4, §5

[3] = system: AR transcriptional program; assay: Whole transcriptomic RNA-sequencing, gene set expression analysis; settings: LNCaP-AR and 22Rv1 cells, 10 μM, 8 hours
Description: Negative enrichment scores (NES are shown for the AR transcriptional program.
Whole transcriptomic RNA-sequencing was performed for two castration resistant cell lines (LNCaP-AR and 22Rv1), which were exposed to JN103 (10 μM) for 8 hours. The experimental results as determined by gene set expression analysis (FIG. 10) show negative enrichment scores (NES) for the AR transcriptional program.

[4] = system: VCaP (full-length and splice variant AR); assay: Colony formation assay, VCaP; settings: 2-10 μm, two weeks
Description: (§6) DU145, PC3LNCaP-AR (full-length AR), 22Rv1 (full-length and splice variant AR), and VCaP cells (400 cells/well of 6-well plate) were treated with indicated 0 (pure DMSO), 2, 4, 6, 8, 10 μm of JN103 for two weeks. Colonies were visualized with methylene blue staining.

ARΔ567 = target: T2, ARΔ567 (Homo sapiens, UniProt P10275); assay: Western blot protein degradation with cycloheximide, HEK-293 cells; settings: ectopically expressed
T2 construct: expressed in transfected cells; host or cells: HEK-293 cells
Description: (§7) LNCaP-AR cells were treated with JN103 and cycloheximide (to inhibit translation) at the indicated doses and times (FIG. 11A). Cell protein was subjected to Western blotting for the indicated proteins. The same tests were performed on LNCaP-95 cells, HEK-293 cells engineered to ectopically express ARΔ567, PC3 cells, and T47D breast cancer cells.

ER or PR = assay: Western blot protein degradation, T47D breast cancer cells, ER and PR; settings: breast cancer cell line that co-expresses AR
Description: as §7

AR = target: T3, AR (Homo sapiens, UniProt P10275); assay: Western blot protein degradation, T47D breast cancer cells, AR; settings: breast cancer cell line that co-expresses AR, ER, and PR (T47D)
T3 construct: a breast cancer cell line that co-expresses AR, ER, and PR; endogenous in cells; host or cells: T47D breast cancer cells
Description: as §7

[5] = system: 22Rv1 (full-length and splice variant AR); assay: Colony formation assay, 22Rv1; settings: 22Rv1, 2-10 μm, two weeks
Description: as §6

PC3 cell = assay: Colony formation assay, PC3; settings: PC3, at high concentrations, two weeks
Description: as §6

full-length AR and AR-V7 = assay: Western blot protein degradation with cycloheximide, LNCaP-95 cells; settings: endogenously expressed
Description: as §7

[6] = target: T4, full-length AR overexpressed in LNCaP-AR cells (Homo sapiens, UniProt P10275); assay: Western blot protein degradation with cycloheximide, LNCaP-AR cells
T4 construct: the full-length AR overexpressed in LNCaP-AR cells; expressed in transfected cells; host or cells: LNCaP-AR cells
Description: as §7

[7] = system: breast cancer cell line (T47D); assay: MTT assay on non-prostate cancer cell lines; settings: 2-8 μm, 5 days
Description: The growth-inhibitory effects of JN103 were also assessed in MTT assays on 20 non-prostate cancer cell lines. (FIG. 13). Cells were exposed to 0 (pure DMSO), 2, 4, 6, and 8 μm of JN103 for 5 days and subjected to MTT assay to determine cell viability. Results are means of quadruplicates.

[8] = system: LNCaP-AR (full-length AR); assay: Colony formation assay, LNCaP-AR; settings: 2-10 μm, two weeks
Description: as §6

AR-null DU145 cells = assay: Colony formation assay, DU145; settings: DU145, 2-10 μm, two weeks
Description: as §6

actin or the GR = assay: Western blot protein degradation, other proteins; settings: FIGS. 11(A)-11(D)
Description: as §7

[9] = system: CREB transactivation domain; assay: CREB-TAD-luciferase reporter assay; settings: inhibition grade
Description: (§8) The biochemical assays include reporter assays to determine the activity and specificity of these JN compounds to inhibit the transcriptional activity of the androgen receptor (AR). The reporter assays were conducted in various cell lines that either endogenously or exogenously express the full-length AR and ARV7, a constitutively active splice variant that is resistant to all clinically available AR targeting compounds. The reporter assays were performed in replicates and across a wide range of concentrations (generally […]).
as §2

[10] = target: AR transactivation domain (Homo sapiens, UniProt P10275); assay: AR-TAD-luciferase reporter assay; settings: inhibition grade
Description: as §1, §2

[11] = target: glucocorticoid receptor (GR) (Homo sapiens, UniProt P04150); assay: GRE-luciferase reporter assay; settings: GR-dependent, inhibition grade
Description: as §8, §2

AP1 (jun and fos family) = assay: AP1-luciferase reporter assay; settings: inhibition grade
Description: as §8, §2

[12] = system: c-Jun transactivation domain; assay: JUN-TAD-luciferase reporter assay; settings: inhibition grade
Description: as §8, §2

T1 sequence (P10275 whole entry): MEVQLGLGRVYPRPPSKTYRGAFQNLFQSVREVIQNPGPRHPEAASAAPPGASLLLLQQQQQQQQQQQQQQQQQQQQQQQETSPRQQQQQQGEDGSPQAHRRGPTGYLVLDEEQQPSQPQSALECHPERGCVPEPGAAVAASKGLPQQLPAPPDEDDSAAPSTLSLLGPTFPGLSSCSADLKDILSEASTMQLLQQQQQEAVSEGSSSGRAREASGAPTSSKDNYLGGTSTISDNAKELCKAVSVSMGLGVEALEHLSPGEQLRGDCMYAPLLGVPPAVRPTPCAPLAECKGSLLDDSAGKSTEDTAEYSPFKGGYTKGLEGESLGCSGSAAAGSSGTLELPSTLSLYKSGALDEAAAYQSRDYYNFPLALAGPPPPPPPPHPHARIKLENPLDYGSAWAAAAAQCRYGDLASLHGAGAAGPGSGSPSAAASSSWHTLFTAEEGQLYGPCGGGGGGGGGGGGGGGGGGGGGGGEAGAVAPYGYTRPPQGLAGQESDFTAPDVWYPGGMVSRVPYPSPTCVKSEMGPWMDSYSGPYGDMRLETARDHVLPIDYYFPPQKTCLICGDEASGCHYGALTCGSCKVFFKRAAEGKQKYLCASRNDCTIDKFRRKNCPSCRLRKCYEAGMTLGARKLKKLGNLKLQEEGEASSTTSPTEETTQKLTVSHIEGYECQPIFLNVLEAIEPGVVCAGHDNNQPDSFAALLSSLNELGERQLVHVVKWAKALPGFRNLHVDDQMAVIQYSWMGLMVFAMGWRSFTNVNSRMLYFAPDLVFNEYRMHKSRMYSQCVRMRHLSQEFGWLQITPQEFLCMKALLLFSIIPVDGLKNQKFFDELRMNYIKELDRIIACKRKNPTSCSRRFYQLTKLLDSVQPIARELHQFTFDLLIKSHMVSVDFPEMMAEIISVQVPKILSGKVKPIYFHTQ
Sequence of glucocorticoid receptor (GR) (P04150 whole entry, species assumed): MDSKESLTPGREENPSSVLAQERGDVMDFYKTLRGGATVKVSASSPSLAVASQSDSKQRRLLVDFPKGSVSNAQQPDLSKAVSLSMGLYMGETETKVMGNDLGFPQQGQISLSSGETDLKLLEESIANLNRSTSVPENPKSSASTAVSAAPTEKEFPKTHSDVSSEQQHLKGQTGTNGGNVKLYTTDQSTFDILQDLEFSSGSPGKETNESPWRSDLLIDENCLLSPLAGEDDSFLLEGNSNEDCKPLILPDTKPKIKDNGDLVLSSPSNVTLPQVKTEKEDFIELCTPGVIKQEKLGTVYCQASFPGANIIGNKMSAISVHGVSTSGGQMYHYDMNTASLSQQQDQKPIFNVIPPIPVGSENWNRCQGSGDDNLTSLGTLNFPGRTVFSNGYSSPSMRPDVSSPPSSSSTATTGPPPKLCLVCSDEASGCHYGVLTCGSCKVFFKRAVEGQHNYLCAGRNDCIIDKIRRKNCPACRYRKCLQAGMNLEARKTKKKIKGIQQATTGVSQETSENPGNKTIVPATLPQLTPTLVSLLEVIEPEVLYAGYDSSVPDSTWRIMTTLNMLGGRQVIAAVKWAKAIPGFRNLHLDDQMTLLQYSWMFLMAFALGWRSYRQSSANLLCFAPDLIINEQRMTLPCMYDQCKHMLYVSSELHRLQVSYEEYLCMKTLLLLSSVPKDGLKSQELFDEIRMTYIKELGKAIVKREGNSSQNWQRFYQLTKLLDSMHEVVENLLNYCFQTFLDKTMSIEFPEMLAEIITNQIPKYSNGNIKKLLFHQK
T2 sequence (P10275 with tags, fused parts or gaps limits assumed): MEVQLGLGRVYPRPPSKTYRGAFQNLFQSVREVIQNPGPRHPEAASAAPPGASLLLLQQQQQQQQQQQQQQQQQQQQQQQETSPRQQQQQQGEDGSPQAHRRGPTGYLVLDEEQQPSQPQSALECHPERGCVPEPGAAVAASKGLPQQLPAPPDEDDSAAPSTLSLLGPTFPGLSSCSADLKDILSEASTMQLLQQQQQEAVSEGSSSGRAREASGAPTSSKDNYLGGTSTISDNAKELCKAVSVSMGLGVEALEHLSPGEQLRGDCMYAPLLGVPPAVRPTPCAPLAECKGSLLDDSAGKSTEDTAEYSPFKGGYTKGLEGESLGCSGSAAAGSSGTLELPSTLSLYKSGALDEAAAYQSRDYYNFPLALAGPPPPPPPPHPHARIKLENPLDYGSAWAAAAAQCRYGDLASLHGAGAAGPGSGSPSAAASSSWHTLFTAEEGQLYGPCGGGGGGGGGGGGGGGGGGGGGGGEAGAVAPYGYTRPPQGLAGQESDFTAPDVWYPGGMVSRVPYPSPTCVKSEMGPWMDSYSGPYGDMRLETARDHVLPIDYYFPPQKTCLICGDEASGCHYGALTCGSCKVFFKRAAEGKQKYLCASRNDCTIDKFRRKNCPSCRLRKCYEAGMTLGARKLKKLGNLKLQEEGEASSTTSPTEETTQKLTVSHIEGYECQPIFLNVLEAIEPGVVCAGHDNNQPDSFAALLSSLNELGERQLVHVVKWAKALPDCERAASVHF
T4 sequence (P10275 whole entry): as the sequence (P10275 whole entry) above
Sequence of AR transactivation domain (P10275 1-559 limits assumed): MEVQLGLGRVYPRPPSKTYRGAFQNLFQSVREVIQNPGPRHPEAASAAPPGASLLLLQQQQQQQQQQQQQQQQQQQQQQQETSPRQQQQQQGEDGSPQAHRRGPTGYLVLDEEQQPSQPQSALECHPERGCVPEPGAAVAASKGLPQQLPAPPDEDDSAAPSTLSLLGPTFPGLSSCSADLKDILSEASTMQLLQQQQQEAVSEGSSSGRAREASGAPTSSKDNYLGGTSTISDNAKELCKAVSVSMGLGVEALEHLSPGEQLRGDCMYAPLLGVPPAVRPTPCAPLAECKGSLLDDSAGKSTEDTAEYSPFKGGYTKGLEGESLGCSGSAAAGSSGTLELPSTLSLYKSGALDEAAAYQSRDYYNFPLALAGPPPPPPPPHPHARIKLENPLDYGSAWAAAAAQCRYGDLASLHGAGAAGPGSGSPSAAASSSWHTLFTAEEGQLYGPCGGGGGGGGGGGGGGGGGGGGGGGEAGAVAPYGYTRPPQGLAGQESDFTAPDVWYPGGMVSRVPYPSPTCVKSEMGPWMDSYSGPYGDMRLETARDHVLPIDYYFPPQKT

Compound | MTT AR-Pos [1] | MTT AR Neg [2] | other results
C=C1CC(c2ccc(OC)cc2)=C(c2ccccc2)C1=O [JN053] | LOW | LOW | MMTV (androgen receptor (AR)): MED
C=C(C)C(=O)NC(=O)/C(=C/c1ccc(Cl)cc1)c1ccc(F)cc1 [JN103, (E)-3-(4-Chlorophenyl)-2-(4-fluorophenyl)-N-methacryloylacrylamide] |  |  | AR gene signature (gene set expression analysis) [3]: marked decrease in the AR gene signature; colony formation [4]: inhibits the growth; degradation of ARΔ567 (ARΔ567): potently induces time- and dose-dependent degradation; degradation of the ER or PR (ER or PR): not the ER or PR; degradation of the AR (AR): induces degradation of the AR; colony formation [5]: inhibits the growth; colony formation (PC3 cell): only mild effects; degradation of full-length AR and AR-V7 (full-length AR and AR-V7): potently induces time- and dose-dependent degradation; degradation of full-length AR [6]: potently induces time- and dose-dependent degradation; growth inhibition (MTT cell viability) [7]: significant growth inhibition; colony formation [8]: inhibits the growth; colony formation (AR-null DU145 cells): limited impact on colony formation; degradation of other proteins, including actin or the GR (actin or the GR): does not affect the degradation
C=CC(=O)NC(=O)/C(=C/c1ccc(Cl)cc1)c1ccc(F)cc1 [JN139] | LOW | LOW | 
CCC1=C(C)CN(C(=O)/C(=C/c2ccc(Cl)cc2)c2ccccc2)C1=O [JN140, (E)-1-(3-(4-Chlorophenyl)-2-phenylacryloyl)-3-ethyl-4-methyl-1,5-dihydro-2H-pyrrol-2-one] | HIGH | HIGH | 
O=C1CCCN1C(=O)/C(=C/c1ccc(Cl)cc1)c1ccccc1 [JN141] | LOW | LOW | 
O=C(C1=CCN(Cc2ccccc2)CC1)/C(=C/c1ccc(Cl)cc1)c1ccccc1 [JN142, (E)-1-(1-Benzyl-1,2,3,6-tetrahydropyridin-4-yl)-3-(4-chlorophenyl)-2-phenylprop-2-en-1-one] | LOW | LOW | 
COC1=CC(=O)N(C(=O)/C(=C/c2ccc(Cl)cc2)c2ccc(F)cc2F)C1 [JN143] | LOW | LOW | 
C#CCNC(=O)/C(=C/c1ccc(Cl)cc1)c1ccc(F)cc1F [JN144, (E)-3-(4-Chlorophenyl)-2-(2,4-difluorophenyl)-N-(prop-2-yn-1-yl)acrylamide] | LOW | LOW | 
NS(=O)(=O)NC(=O)/C(=C/c1ccc(Cl)cc1)c1ccc(F)cc1F [JN145, (E)-3-(4-Chlorophenyl)-2-(2,4-difluorophenyl)-N-sulfamoylacrylamide] | LOW | LOW | 
N#CC1(NC(=O)/C(=C/c2ccc(Cl)cc2)c2ccc(F)cc2F)CC1 [JN146] | LOW | LOW | 
O=C(NC(=O)C1CC1)/C(=C/c1ccc(Cl)cc1)c1ccc(F)cc1F [JN147, (E)-N-(3-(4-Chlorophenyl)-2-(2,4-difluorophenyl)acryloyl)cyclopropanecarboxamide] | LOW | LOW | 
Cc1cnc(/C(=C/c2ccc(Cl)cc2)c2ccc(F)cc2F)o1 [JN148, (E)-2-(2-(4-Chlorophenyl)-1-(2,4-difluorophenyl)vinyl)-5-methyloxazole] | LOW | LOW | 
C=C1CN=C(/C(=C/c2ccc(Cl)cc2)c2ccc(F)cc2F)O1 [JN149, (E)-2-(2-(4-Chlorophenyl)-1-(2,4-difluorophenyl)vinyl)-5-methylene-4,5-dihydrooxazole] | LOW | LOW | 
C=C(Cc1ccccc1)C(=O)NC(=O)/C(=C/c1ccc(Cl)cc1)c1ccc(F)cc1F [JN150] | HIGH | HIGH | 
C=C(C)C(=O)OCCOC(=O)/C(=C/c1ccc(Cl)cc1)c1ccc(F)cc1F [JN151] | LOW | LOW | 
C=C(C)C(=O)NC(=O)/C(=C/c1ccc(Cl)cc1)c1ccc(C(F)(F)F)cc1 [JN152] | HIGH | LOW | CREB-TAD [9]: HIGH; MMTV (androgen receptor (AR)): HIGH; AR-TAD [10]: HIGH; GRE [11]: HIGH
C=C(C)C(=O)NC(=O)/C(=C/c1ccc(C(F)(F)F)nc1)c1ccccc1 [JN153] | HIGH | HIGH | 
O=C(/C=C/C(F)(F)F)NC(=O)/C(=C/c1ccc(Cl)cc1)c1ccc(F)cc1F [JN154] | HIGH | LOW | 
O=C(/C=C/c1ccccc1)NC(=O)/C(=C/c1ccc(Cl)cc1)c1ccc(F)cc1F [JN155] | LOW | LOW | 
C=C(C)C(=O)NCCCNC(=O)/C(=C/c1ccc(Cl)cc1)c1ccc(F)cc1F [JN156, (E)-3-(4-Chlorophenyl)-2-(2,4-difluorophenyl)-N-(3-methacrylamidopropyl)acrylamide] | LOW | LOW | 
CNC(=O)c1ccc(N2C(=S)N(c3ccc(C#N)c(C(F)(F)F)c3)C(=O)C2(C)C)cc1F [MDV3100, reference compound] | HIGH | LOW | CREB-TAD [9]: LOW; AP1 (AP1 (jun and fos family)): HIGH; GRE [11]: LOW; JUN-TAD [12]: LOW
